# Values quoted from earlier work in US20170007618A1, “SEROTONIN 2C RECEPTOR ANTAGONISTS TO PREVENT AND TREAT STRESS-RELATED TRAUMA DISORDERS” (Massachusetts Institute of Technology, priority 2015, published 2017).
# Counter-ions that a name gives are not always drawn.
# Columns and labels:
# 5-HT2B receptors = 5-HT2B receptors (Homo sapiens, UniProt P41595); details: 5-HT2C versus 5-HT2B
# 5-HT2A receptors = 5-HT2A receptors (Homo sapiens, UniProt P28223); details: 5-HT2C versus 5-HT2A
# [1] = molecular target: T1, cloned human 5-HT2C receptor (Homo sapiens, UniProt P28335)
# T1 sequence (P28335 33-458): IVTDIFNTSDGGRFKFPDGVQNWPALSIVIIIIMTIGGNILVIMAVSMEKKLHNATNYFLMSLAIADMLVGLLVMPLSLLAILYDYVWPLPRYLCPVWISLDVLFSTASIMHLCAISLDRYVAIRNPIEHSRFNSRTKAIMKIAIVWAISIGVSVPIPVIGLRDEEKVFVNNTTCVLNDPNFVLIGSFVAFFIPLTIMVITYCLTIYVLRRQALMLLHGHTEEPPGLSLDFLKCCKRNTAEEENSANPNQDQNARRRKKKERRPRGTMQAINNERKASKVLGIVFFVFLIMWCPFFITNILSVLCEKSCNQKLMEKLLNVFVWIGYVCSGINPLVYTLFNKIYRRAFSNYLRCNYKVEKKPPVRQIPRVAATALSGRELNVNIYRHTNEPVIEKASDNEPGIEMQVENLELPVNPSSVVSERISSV
# Chain of 5-HT2A receptors (P28223 whole entry): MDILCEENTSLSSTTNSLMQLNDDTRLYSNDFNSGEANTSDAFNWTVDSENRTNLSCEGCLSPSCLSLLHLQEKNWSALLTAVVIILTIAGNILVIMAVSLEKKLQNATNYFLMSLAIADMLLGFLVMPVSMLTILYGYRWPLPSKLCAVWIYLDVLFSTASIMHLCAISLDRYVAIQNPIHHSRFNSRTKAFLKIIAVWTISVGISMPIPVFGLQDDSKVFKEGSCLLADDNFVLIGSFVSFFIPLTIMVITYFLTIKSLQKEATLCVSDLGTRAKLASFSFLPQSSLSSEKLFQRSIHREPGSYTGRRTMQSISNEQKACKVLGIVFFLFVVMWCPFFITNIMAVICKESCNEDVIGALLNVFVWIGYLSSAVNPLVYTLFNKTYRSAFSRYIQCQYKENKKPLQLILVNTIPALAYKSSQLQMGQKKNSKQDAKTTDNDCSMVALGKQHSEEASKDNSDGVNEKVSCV
# Chain of 5-HT2B receptors (P41595 whole entry): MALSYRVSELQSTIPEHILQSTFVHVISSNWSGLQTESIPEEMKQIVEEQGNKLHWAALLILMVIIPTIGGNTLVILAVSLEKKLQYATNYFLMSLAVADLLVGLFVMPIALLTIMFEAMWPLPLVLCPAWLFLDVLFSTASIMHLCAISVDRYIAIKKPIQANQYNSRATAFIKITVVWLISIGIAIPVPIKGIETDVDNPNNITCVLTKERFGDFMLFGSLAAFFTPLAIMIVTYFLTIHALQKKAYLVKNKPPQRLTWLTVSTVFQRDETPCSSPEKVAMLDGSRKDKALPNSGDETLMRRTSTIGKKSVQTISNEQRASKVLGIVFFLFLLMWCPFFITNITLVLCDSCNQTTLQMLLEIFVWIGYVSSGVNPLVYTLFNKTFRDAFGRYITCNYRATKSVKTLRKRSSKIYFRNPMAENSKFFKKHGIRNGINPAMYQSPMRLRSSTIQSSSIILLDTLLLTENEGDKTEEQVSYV
pKi [1],Compound,selectivity over 5-HT2B receptors (5-HT2B receptors) [fold],selectivity over 5-HT2A receptors (5-HT2A receptors) [fold]
–,"COc1cc(OC)c(C(=O)CCCCN2CCC3(CC2)NC(=O)NC3=O)cc1NS(=O)(=O)c1ccc(C(F)(F)F)cc1 [RS 102221, 8-[5-(2,4-Dimethoxy-5-(4-trifluoromethylphenylsulphonamido)phenyl-5-oxopentyl]-1,3,8-triazaspiro[4.5]decane-2,4-dione hydrochloride]",100,100
–,"Cc1cc2c(cc1Cl)N(C(=O)Nc1ccc(Oc3cccnc3C)nc1)CC2 [SB 242084, 6-chloro-5-methyl-N-{6-[(2-methylpyridin-3-yl)oxy]pyridin-3-yl}indoline-1-carboxamide]",100,158
6.9,"Cl.Cn1ccc2cc(NC(=O)Nc3cccnc3)ccc21 [SB 200646A, N-(1-methyl-5-indolyl)-N′-(3-pyridyl) urea hydrochloride]",–,–
